The subject of one assay is M. restricta. Kind of assay: Overlay assay, Log10 reduction (Kill) of M. restricta. Type of assay: cell-based, Malassezia restricta. The text has this:
(§1) Staphylococcus hominis (S. hominis, ATCC 27844), Cutibacterium acnes (C. acnes, ATCC6919), Staphylococcus aureus (S. aureus, ATCC 6538), and Malassezia restricta (M. restricta, ATCC 7877) were inoculated from freezer stock onto agar plates according to culture conditions as shown in table 1. Then, one loop of microbes from agar plate was inoculated into a liquid culture system according to the culture condition as shown in table 1. M. restricta were reinoculated on MLNA plate twice before use. Cell density of bacteria (S. hominis, C. acnes and S. aureus) was adjusted to concentration at 10^8 cfu/mL for further use based on absorption at 600 nm. Cell density of M. restricta was adjusted to concentration at 10^8 cfu/mL for further use based on absorption at 610 nm.
(§2) On Day 0, 15 mL of TSA containing (1) 2% Trehalose and 10^6 cfu/ml S. hominis, (2) 10^6 cfu/ml S. hominis alone (without trehalose), and (3) 2% trehalose alone (without S. hominis) was solidified in a […] petri dish and cultured at 37° C. for four days. TSA agar without S. hominis nor trehalose was prepared in parallel as control. […]
(§3) At the end, Log10 reduction (Kill) were determined for the targeted microorganisms, M. restricta and S. aureus on plate (1), (2), and (3) as compared to the respective M. restricta or S. aureus growth on control plate

The subject of the next assay is S. aureus. Kind of assay: Overlay assay, Log10 reduction (Kill) of S. aureus. Format: cell-based, Staphylococcus aureus.
From the text: as §1, §2, §3

Structures are written as SMILES.

For the compound `OC[C@H]1O[C@H](O[C@H]2O[C@H](CO)[C@@H](O)[C@H](O)[C@H]2O)[C@H](O)[C@@H](O)[C@@H]1O` [A, trehalose], the “Log10 reduction (Kill) of M. restricta” value in the assay on M. restricta (TSA plate cultured at 37° C. for four days, MLNA overlay, serially diluted M. restricta (ATCC 7877) dotted on, compared to growth on control plate) is listed as 0. As for `OC[C@H]1O[C@H](O[C@H]2O[C@H](CO)[C@@H](O)[C@H](O)[C@H]2O)[C@H](O)[C@@H](O)[C@@H]1O` [C, trehalose], the “Log10 reduction (Kill) of S. aureus” value in the assay with S. aureus (TSA plate cultured at 37° C. for four days, TSA overlay, serially diluted S. aureus (ATCC 6538) dotted on, compared to growth on control plate) is listed as 1. Take `OC[C@H]1O[C@H](O[C@H]2O[C@H](CO)[C@@H](O)[C@H](O)[C@H]2O)[C@H](O)[C@@H](O)[C@@H]1O` [Trehalose]: the “effectiveness against Malassezia restricta” value in the assay on M. restricta (in the presence of S. hominis, conclusion from Table 3) is recorded as “effective”. Moreover, the “effectiveness against Staphylococcus aureus” value with S. aureus (in the presence of S. hominis, conclusion from Table 4) is reported as “effective”.
